Consider five compounds from ChEMBL document CHEMBL1212716, “Impact of linker strain and flexibility in the design of a fragment-based inhibitor” (Nat Chem Biol, 2009).

Test [1] has as its target T1, Uracil-DNA glycosylase (Homo sapiens, UniProt P13051). Description: Inhibition of human uracil DNA glycosylase using fluorescent DNA substrate.
Test [2] concerns the target T1, Uracil-DNA glycosylase. Description: Inhibition of human uracil DNA glycosylase at […] using fluorescent DNA substrate.

T1 sequence (P13051 whole entry): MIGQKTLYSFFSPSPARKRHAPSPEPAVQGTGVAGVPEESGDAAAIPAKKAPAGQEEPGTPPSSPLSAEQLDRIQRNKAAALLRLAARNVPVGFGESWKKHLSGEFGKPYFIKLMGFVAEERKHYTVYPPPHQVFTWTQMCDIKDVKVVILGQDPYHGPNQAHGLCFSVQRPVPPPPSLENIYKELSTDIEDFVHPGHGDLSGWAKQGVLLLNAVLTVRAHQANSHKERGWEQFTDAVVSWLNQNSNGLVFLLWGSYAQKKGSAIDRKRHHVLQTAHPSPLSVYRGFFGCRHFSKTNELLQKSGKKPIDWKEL

On to `NCCCO/N=C/c1cc(=O)[nH]c(=O)[nH]1`, for which, on Uracil-DNA glycosylase [1], the Ki (as a rule, the dissociation constant of the complex between target and ligand, obtained from inhibition or displacement) came out at 0.75 mM.
Compound `NCCCO/N=C/c1cccc(C(=O)O)c1` yielded a Ki on Uracil-DNA glycosylase [1] of 10 mM. In addition, the inhibition (in general, the relative decrease from the control value, in per cent) against Uracil-DNA glycosylase [2] is 25%.
Regarding `NOCCCNCc1cccc(C(=O)O)c1`, on Uracil-DNA glycosylase [1], the Ki was found to be 16 mM. On Uracil-DNA glycosylase [2], this compound returned an inhibition of 18%.
In the case of `NOCCCNCc1cc(=O)[nH]c(=O)[nH]1`, affinity at Uracil-DNA glycosylase [1] was put at a Ki of 0.7 mM.
With `O=Cc1cccc(C(=O)O)c1` [3-FORMYLBENZOIC ACID], the Ki at Uracil-DNA glycosylase [1] turned out to be 10 mM.
